pIC50: −log10 of the molar value. Where a name gives a salt, the structure may show the parent alone.
Columns and labels:
c-Kit(V654A) = c-Kit(V654A) (Homo sapiens, UniProt P10721, V654A); assay: c-Kit(V654A) assay; format: biochemical; details: Table 1; 200 μM ATP
How it was run: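 Radiometric filter-binding read-out: after 3% phosphoric acid stop, peptide-incorporated 33P on filtermat scintillation-counted. Enzyme: human c-Kit V654A, residues 544–end, N-terminal GST fusion.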

[1] = biological target: mutant cKIT (560-576 and V654A) in GIST430/654 cell line (Homo sapiens (Human), UniProt P10721, DEL560-576/V654A); assay: Cellular testing of cKIT mutant inhibitors: phospho-Y307-cKIT Luminex assay in GIST430/654 cells; format: cell-based; details: Table 1; cKIT autophosphorylation, compounds 45 min; read-out: GIST 430/654 IC50
Chain of mutant cKIT (560-576 and V654A) in GIST430/654 cell line (P10721 other isoform, or with tags, fused parts or gaps V654A/del 1-25/del 560-576 limits assumed): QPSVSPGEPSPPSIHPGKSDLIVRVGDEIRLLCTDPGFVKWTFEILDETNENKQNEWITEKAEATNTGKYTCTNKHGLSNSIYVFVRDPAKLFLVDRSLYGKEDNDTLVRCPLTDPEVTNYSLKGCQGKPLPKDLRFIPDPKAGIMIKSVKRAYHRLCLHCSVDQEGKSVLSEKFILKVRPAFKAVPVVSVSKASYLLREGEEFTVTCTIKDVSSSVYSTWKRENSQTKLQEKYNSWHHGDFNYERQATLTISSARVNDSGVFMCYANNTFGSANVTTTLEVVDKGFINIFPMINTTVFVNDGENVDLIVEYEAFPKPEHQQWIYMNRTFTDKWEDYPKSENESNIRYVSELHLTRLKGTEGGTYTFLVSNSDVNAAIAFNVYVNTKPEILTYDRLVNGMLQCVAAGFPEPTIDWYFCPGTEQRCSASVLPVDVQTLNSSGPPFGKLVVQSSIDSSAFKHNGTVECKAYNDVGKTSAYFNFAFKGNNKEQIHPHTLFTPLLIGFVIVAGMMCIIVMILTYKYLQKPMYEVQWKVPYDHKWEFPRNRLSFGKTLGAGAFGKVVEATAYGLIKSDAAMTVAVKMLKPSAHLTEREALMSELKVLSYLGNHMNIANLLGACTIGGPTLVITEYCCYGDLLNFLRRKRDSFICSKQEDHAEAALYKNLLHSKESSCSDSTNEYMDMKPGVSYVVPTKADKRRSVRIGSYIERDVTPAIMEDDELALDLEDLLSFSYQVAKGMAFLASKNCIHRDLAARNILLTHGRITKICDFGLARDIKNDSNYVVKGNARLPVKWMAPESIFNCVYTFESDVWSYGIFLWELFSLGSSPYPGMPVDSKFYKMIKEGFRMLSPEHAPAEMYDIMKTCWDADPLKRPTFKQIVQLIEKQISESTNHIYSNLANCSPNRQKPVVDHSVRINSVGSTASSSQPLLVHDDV
How it was run: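 GIST430/654 cells carrying constitutively active cKIT (Δ560-576/V654A) were grown with 100 nM imatinib, then treated with serially diluted compound for 45 min. Lysates were captured on anti-total-cKIT Luminex beads overnight at 4 °C and probed for phospho-Y307-cKIT. IC50 was fitted from percent of 0.3% DMSO control.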

Row | Structure (SMILES) | pIC50 (c-Kit(V654A)) | pIC50 [1]
1 | COCCOc1cc2[nH]nc(-c3cc(-c4ccc(C(=O)N5Cc6cn[nH]c6C5)cc4)no3)c2cc1F [A208, 5-fluoro-6-(2-methoxyethoxy)-3-[3-(4-{1H,4H,5H,6H-pyrrolo[3,4-c]pyrazole-5-carbonyl}phenyl)-1,2-oxazol-5-yl]-1H-indazole] | 9.13 | 7.12
2 | COCCOc1cc2[nH]nc(-c3cc(-c4ccc(C(=O)N5CC(N6CCOCC6)C5)cc4)on3)c2cc1F [A146, (4-{3-[5-fluoro-6-(2-methoxy-ethoxy)-1H-indazol-3-yl]-isoxazol-5-yl}-phenyl)-(3-morpholin-4-yl-azetidin-1-yl)-methanone] | 8.54 | 7.05
3 | COCCOc1cc2[nH]nc(-c3cc(-c4ccc(C(=O)N5CCC[C@@H]5CO)nc4)no3)c2cc1F [A62, (5-{5-[5-fluoro-6-(2-methoxy-ethoxy)-1H-indazol-3-yl]-isoxazol-3-yl}-pyridin-2-yl)-((R)-2-hydroxymethyl-pyrrolidin-1-yl)-methanone] | 8.25 | 6.35
4 | COCCOc1cc2[nH]nc(-c3cc(-c4ccc(C(=O)N5CCS(=O)(=O)CC5C)cc4)no3)c2cc1F (centres unmarked) [A121, 4-(4-{5-[5-fluoro-6-(2-methoxyethoxy)-1H-indazol-3-yl]-1,2-oxazol-3-yl}benzoyl)-3-methyl-1lambda6-thiomorpholine-1,1-dione] | 9.22 | 7.38
5 | COCCOc1cc2[nH]nc(-c3cc(-c4ccc(C(=O)N5CCN(C6COC6)CC5C)cc4)no3)c2cc1F (centres unmarked) [A174, 5-fluoro-6-(2-methoxyethoxy)-3-(3-{4-[2-methyl-4-(oxetan-3-yl)piperazine-1-carbonyl]phenyl}-1,2-oxazol-5-yl)-1H-indazole] | 8.89 | 7.46
6 | COCCOc1cc2[nH]nc(-c3cc(-c4ccc(C(=O)N(C)C)nc4)no3)c2cc1F [A99, 5-{5-[5-fluoro-6-(2-methoxy-ethoxy)-1H-indazol-3-yl]-isoxazol-3-yl}-pyridine-2-carboxylic acid dimethylamide] | 8.16 | 6.17
7 | COCCOc1cc2[nH]nc(-c3cc(-c4ccc(C(=O)N5C[C@H]6C[C@@H]5CO6)cc4)no3)c2cc1F [A163, 5-fluoro-6-(2-methoxyethoxy)-3-(3-{4-[(1R,4R)-2-oxa-5-azabicyclo[2.2.1]heptane-5-carbonyl]phenyl}-1,2-oxazol-5-yl)-1H-indazole] | 9.27 | 7.42
8 | COCCOc1cc2[nH]nc(-c3cc(-c4ccc(C(=O)N5CCN([C@H]6CCOC6)CC5)cc4)no3)c2cc1F [A186, 5-fluoro-6-(2-methoxyethoxy)-3-[3-(4-{4-[(3S)-oxolan-3-yl]piperazine-1-carbonyl}phenyl)-1,2-oxazol-5-yl]-1H-indazole] | 8.96 | 7.32
9 | COC(CO)COc1cc2[nH]nc(-c3cc(-c4ccc(C(=O)N(C)C)cc4)no3)c2cc1F (centres unmarked) [A49, 4-{5-[5-fluoro-6-(3-hydroxy-2-methoxypropoxy)-1H-indazol-3-yl]-1,2-oxazol-3-yl}-N,N-dimethylbenzamide] | 8.72 | 6.30
10 | COCCOc1cc2[nH]nc(-c3cc(-c4ccc(C(=O)N5CC(F)C5)cn4)no3)c2cc1F [A81, 5-fluoro-3-{3-[5-(3-fluoroazetidine-1-carbonyl)pyridin-2-yl]-1,2-oxazol-5-yl}-6-(2-methoxyethoxy)-1H-indazole] | 8.22 | 6.68
11 | COCCOc1cc2[nH]nc(-c3cc(-c4cnn(C)c4)no3)c2cc1F [A137, 5-fluoro-6-(2-methoxy-ethoxy)-3-[3-(1-methyl-1H-pyrazol-4-yl)-isoxazol-5-yl]-1H-indazole] | 8.12 | 6.74
12 | COCCOc1cc2[nH]nc(-c3cc(-c4ccc(C(=O)N5CCOCC56COC6)cc4)no3)c2cc1F [A155, 5-(4-{5-[5-fluoro-6-(2-methoxyethoxy)-1H-indazol-3-yl]-1,2-oxazol-3-yl}benzoyl)-2,8-dioxa-5-azaspiro[3.5]nonane] | 8.80 | 7.22
13 | COCCOc1cc2[nH]nc(-c3cc(-c4ccc(C(=O)N5CCOC[C@H]5COC)cc4)no3)c2cc1F [A111, 5-fluoro-6-(2-methoxyethoxy)-3-(3-{4-[(3R)-3-(methoxymethyl)morpholine-4-carbonyl]phenyl}-1,2-oxazol-5-yl)-1H-indazole] | 8.92 | 7.21
14 | [2H]C1([2H])NC([2H])([2H])C([2H])([2H])N(C(=O)c2ccc(-c3cc(-c4n[nH]c5cc(OCCOC)c(F)cc45)on3)cc2)C1([2H])[2H] [A232, 5-fluoro-6-(2-methoxyethoxy)-3-(3-{4-[(2,2,3,3,5,5,6,6-^2H8)piperazine-1-carbonyl]phenyl}-1,2-oxazol-5-yl)-1H-indazole hydrochloride] | 10.05 | 7.00
15 | COCCOc1cc2[nH]nc(-c3cc(-c4ccc(C(=O)N5CCN(C6COC6)CC5)c(F)c4)no3)c2cc1F [A196, (2-fluoro-4-{5-[5-fluoro-6-(2-methoxy-ethoxy)-1H-indazol-3-yl]-isoxazol-3-yl}-phenyl)-(4-oxetan-3-yl-piperazin-1-yl)-methanone] | 8.42 | 7.32
16 | COCCOc1cc2[nH]nc(-c3cc(-c4ccc(C(=O)N5CCN([C@@H]6CCOC6)CC5)cc4)no3)c2cc1F [A185, 5-fluoro-6-(2-methoxyethoxy)-3-[3-(4-{4-[(3R)-oxolan-3-yl]piperazine-1-carbonyl}phenyl)-1,2-oxazol-5-yl]-1H-indazole] | 8.96 | 7.22
17 | COCCOc1cc2[nH]nc(-c3cc(-c4ccc(C(=O)N5CCC56COC6)c(C)c4)no3)c2cc1F [A169, (4-{5-[5-fluoro-6-(2-methoxy-ethoxy)-1H-indazol-3-yl]-isoxazol-3-yl}-2-methyl-phenyl)-(6-oxa-1-aza-spiro[3.3]hept-1-yl)-methanone] | 8.92 | 7.36
18 | C[C@H]1CN(C)CCN1C(=O)c1ccc(-c2cc(-c3n[nH]c4cc(-c5cnn(C)c5)ccc34)on2)cc1 [A9, 3-(3-{4-[(2S)-2,4-dimethylpiperazine-1-carbonyl]phenyl}-1,2-oxazol-5-yl)-6-(1-methyl-1H-pyrazol-4-yl)-1H-indazole] | 8.06 | 6.89
19 | COCCOc1cc2[nH]nc(-c3cc(-c4ccc(C(=O)N5CC(O)(c6ccncc6)C5)cc4)no3)c2cc1F [A206, 1-(4-{5-[5-fluoro-6-(2-methoxyethoxy)-1H-indazol-3-yl]-1,2-oxazol-3-yl}benzoyl)-3-(pyridin-4-yl)azetidin-3-ol] | 9.17 | 7.10
20 | COCCOc1cc2[nH]nc(-c3cc(-c4ccc(C(=O)N5CC6(CCOCC6)C5)cc4)no3)c2cc1F [A165, 2-(4-{5-[5-fluoro-6-(2-methoxyethoxy)-1H-indazol-3-yl]-1,2-oxazol-3-yl}benzoyl)-7-oxa-2-azaspiro[3.5]nonane] | 9.28 | 7.57
21 | COCCOc1cc2[nH]nc(-c3cc(-c4ccc(C(=O)N5CC(N6CCOC[C@H]6C)C5)cc4)no3)c2cc1F [A201, 5-fluoro-6-(2-methoxyethoxy)-3-[3-(4-{3-[(3R)-3-methylmorpholin-4-yl]azetidine-1-carbonyl}phenyl)-1,2-oxazol-5-yl]-1H-indazole] | 8.70 | 7.51
22 | COCCOc1cc2[nH]nc(-c3cc(-c4ccc(C(=O)N5CCC6(CC5)CN(C)C6)cc4)no3)c2cc1F [A176, 7-(4-{5-[5-fluoro-6-(2-methoxyethoxy)-1H-indazol-3-yl]-1,2-oxazol-3-yl}benzoyl)-2-methyl-2,7-diazaspiro[3.5]nonane] | 8.59 | 6.49
